Results: US12502380B2, “MrgprX2 antagonists for the treatment of inflammatory disorders” (Dermira, Inc., priority 2019, dated 2025)

target: T1, Human MrgprX2 (Homo sapiens, UniProt Q96LB1); assay: Human MrgprX2 antagonist FLIPR intracellular calcium mobilization assay; type: cell-based; conditions: antagonist activity, recombinant hMrgpMRGPRX2 expressing cells, read-out: Human MrgprX2 Antagonist pIC50 (converted)
T1 construct: expressed in transfected cells
T1 sequence (Q96LB1 1-330): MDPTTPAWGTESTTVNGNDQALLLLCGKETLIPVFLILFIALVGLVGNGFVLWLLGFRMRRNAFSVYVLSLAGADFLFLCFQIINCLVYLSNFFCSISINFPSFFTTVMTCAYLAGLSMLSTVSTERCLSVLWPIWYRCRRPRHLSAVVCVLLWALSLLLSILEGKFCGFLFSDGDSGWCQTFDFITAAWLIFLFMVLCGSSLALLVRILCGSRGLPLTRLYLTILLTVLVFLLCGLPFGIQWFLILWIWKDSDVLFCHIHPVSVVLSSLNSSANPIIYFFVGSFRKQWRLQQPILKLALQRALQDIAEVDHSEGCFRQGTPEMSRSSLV
In short: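 Antagonist activity was read as inhibition of intracellular calcium mobilization (FLIPR) in recombinant cells expressing human MrgprX2. Potency was also checked in LAD-2 human mast cells with endogenous receptor, and orthologue activity in cells expressing mouse MrgprB2, mouse MrgprA1, and gerbil, Chinese hamster and cynomolgus orthologues.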

Compared with `CCN(C[C@H](C)O)C(=O)Nc1ncc(Oc2cncc(C)c2)s1` [Compound E178], `CCN(C[C@H](C)O)C(=O)Nc1ncc(Oc2cncc(C(F)(F)F)c2)s1` [Compound E180] is 7.9-fold higher in IC50: 31.6 nM for the first, 251 nM for the second.

Going from `C[C@H](O)CN(C)C(=O)Nc1ncc(Oc2cncc(C(F)(F)F)c2)s1` [Compound E179] to `C[C@H](O)CN(C)C(=O)Nc1ncc(Oc2cccc(C(F)(F)F)c2)s1` [Compound E182], the IC50 falls from 3980 nM to 20 nM (200-fold).

Compared with `CCN(C[C@H](C)O)C(=O)Nc1ncc(Oc2ccnc(C#N)c2)s1` [Compound E181], `CCN(C[C@H](C)O)C(=O)Nc1ncc(Oc2ccnc(F)c2)s1` [Compound E185] is 1300-fold lower in IC50: 2510 nM for the first, 2 nM for the second.

`CCN(C[C@H](C)O)C(=O)Nc1ncc(Oc2cccc(C(F)(F)F)c2)s1` [Compound E183] and `CCN(C[C@@H](C)O)C(=O)Nc1ncc(Oc2ccc(F)cc2)s1` [Compound E204] are the same in IC50: 3.16 nM for the first, 3.16 nM for the second.

Compared with `CCN(C[C@H](C)O)C(=O)Nc1ncc(Oc2ccc(F)c(C#N)c2)s1` [Compound E184], `CCN(C[C@H](C)O)C(=O)Nc1ncc(Oc2cc(C#N)ccc2F)s1` [Compound E193] is 7.9-fold higher in IC50: 5.01 nM for the first, 39.8 nM for the second.

Going from `CCN(CCO)C(=O)Nc1ncc(Oc2ccc(F)cc2)s1` [Compound E186] to `CN(CCO)C(=O)Nc1ncc(Oc2ccc(F)cc2)s1` [Compound E205], the IC50 rises from 31.6 nM to 251 nM (7.9-fold).

`C[C@H](O)CN(C)C(=O)Nc1ncc(Oc2cc(F)cc(C#N)c2)s1` [Compound E187] and `CCN(C[C@H](C)O)C(=O)Nc1ncc(Oc2cc(F)cc(C#N)c2)s1` [Compound E188] are the same in IC50: 1.26 nM for the first, 1.26 nM for the second.

`C[C@H](O)CN(C)C(=O)Nc1ncc(Oc2ccc(C#N)cc2F)s1` [Compound E189] and `C[C@H](O)CN(C)C(=O)Nc1ncc(Oc2cc(C#N)ccc2F)s1` [Compound E194] are within 1.5-fold of each other in IC50: 398 nM for the first, 501 nM for the second.

Going from `CCN(C[C@H](C)O)C(=O)Nc1ncc(Oc2ccc(C#N)cc2F)s1` [Compound E190] to `CCN(C[C@H](C)O)C(=O)Nc1ncc(Oc2ccc(F)cc2C#N)s1` [Compound E191], the IC50 rises from 6.31 nM to 794 nM (130-fold).

Compared with `C[C@H](O)CN(C)C(=O)Nc1ncc(Oc2ccc(F)cc2C#N)s1` [Compound E192], `C[C@H](O)CN(C)C(=O)Nc1ncc(Oc2cc(F)ccc2C#N)s1` [Compound E195] is 1.6-fold lower in IC50: 3160 nM for the first, 2000 nM for the second.

Compared with `CCN(C[C@H](C)O)C(=O)Nc1ncc(Oc2cc(F)ccc2C#N)s1` [Compound E196], `CCN(C[C@H](C)O)C(=O)Nc1ncc(Oc2cccc(C#N)c2F)s1` [Compound E197] is 6.3-fold lower in IC50: 316 nM for the first, 50.1 nM for the second.

Compared with `C[C@H](O)CN(C)C(=O)Nc1ncc(Oc2cccc(C#N)c2F)s1` [Compound E198], `C[C@H](O)CN(C)C(=O)Nc1ncc(Oc2cccc(F)c2C#N)s1` [Compound E200] is 4-fold higher in IC50: 398 nM for the first, 1580 nM for the second.

First: CCN(C[C@H](C)O)C(=O)Nc1ncc(Oc2cccc(F)c2C#N)s1 [Compound E199]
Second: CCN(C[C@H](C)O)C(=O)Nc1ncc(Oc2cccnc2F)s1 [Compound E203]
The IC50 of the first is 2.5-fold higher: 251 nM for the first, 100 nM for the second.

Compared with `CCN(C[C@H](C)O)C(=O)Nc1ncc(Oc2cncnc2)s1` [Compound E201], `CCN(C[C@H](C)O)C(=O)Nc1ncc(Oc2ccc(Cl)nc2)s1` [Compound E202] is 13-fold lower in IC50: 2510 nM for the first, 200 nM for the second.

First: CCN(C[C@H](C)O)C(=O)Nc1ncc(Oc2cc(C)cc(C#N)c2)s1 [Compound E206]
Second: CCN(C[C@@H](C)O)C(=O)Nc1ncc(Oc2cc(F)cc(C#N)c2)s1 [Compound E210]
The IC50 of the first is 2.5-fold higher: 6.31 nM for the first, 2.51 nM for the second.

Going from `CCN(C[C@H](C)O)C(=O)Nc1nc(C#N)c(Oc2ccc(F)cc2)s1` [Compound E207] to `CCN(C[C@H](C)O)C(=O)Nc1nc(C)c(Oc2ccc(F)cc2)s1` [Compound E208], the IC50 falls from 1000 nM to 7.94 nM (130-fold).

First: CCN(C[C@H](C)O)C(=O)Nc1nc(C)c(Oc2cc(F)cc(C#N)c2)s1 [Compound E209]
Second: CCN(C[C@H](C)O)C(=O)Nc1cnc(Oc2cc(F)cc(F)c2)s1 [Compound E215]
The IC50 of the first is 2500-fold lower: 3.16 nM for the first, 7940 nM for the second.

First: CCN(C[C@@H](C)O)C(=O)Nc1ncc(Oc2ccc(C#N)cc2)s1 [Compound E211]
Second: CCN(C[C@H](C)O)C(=O)Nc1ncc(Oc2ccc(CC#N)cc2)s1 [Compound E213]
The IC50 of the first is 3.2-fold lower: 398 nM for the first, 1260 nM for the second.

First: CCN(C[C@H](C)O)C(=O)Nc1ncc(Oc2ccc(C#N)nc2)s1 [Compound E212]
Second: CCN(C[C@H](C)O)C(=O)Nc1ncc(Oc2ccc(C(=O)OC)cc2)s1 [Compound E214]
The IC50 of the first is 20-fold lower: 158 nM for the first, 3160 nM for the second.

First: CC(C)C(=O)Nc1cnc(Cc2cccc(F)c2)s1 [Compound E216, N-[2-[(3-fluorophenyl)methyl]thiazol-5-yl]-2-methyl-propanamide]
Second: CC(C)NC(=O)c1ncc(Cc2cccc(F)c2)s1 [Compound E217, 5-[(3-fluorophenyl)methyl]-N-isopropyl-thiazole-2-carboxamide]
The IC50 of the first is 4-fold higher: 7940 nM for the first, 2000 nM for the second.

`CC(C)N(C)C(=O)c1ncc(Cc2cccc(F)c2)s1` [Compound E218, 5-[(3-fluorophenyl)methyl]-N-isopropyl-N-methyl-thiazole-2-carboxamide] and `CC(C)NC(=O)c1nc(F)c(Cc2ccc(F)cc2)s1` [Compound E220, 4-fluoro-5-[(4-fluorophenyl)methyl]-N-isopropyl-thiazole-2-carboxamide] are within 1.5-fold of each other in IC50: 7940 nM for the first, 6310 nM for the second.

Compared with `CC(C)C(=O)Nc1ncc(C(C)c2ccccc2)s1` (stereo not shown) [Compound E219, 2-methyl-N-[5-(1-phenylethyl)thiazol-2-yl]propanamide], `CC(C)C(=O)Nc1csc(C(=O)NCc2ccccc2)c1` [Compound E223, N-benzyl-4-(2-methylpropanoylamino)thiophene-2-carboxamide] is 10-fold higher in IC50: 794 nM for the first, 7940 nM for the second.

Compared with `CC(C)NC(=O)c1cc(Cc2cc(F)cc(F)c2)on1` [Compound E221, 5-[(3,5-difluorophenyl)methyl]-N-isopropyl-isoxazole-3-carboxamide], `CC(C)c1nc2ccc(Oc3ccccc3)cc2[nH]1` [Compound E222, 6-phenoxy-2-(propan-2-yl)-1H-1,3-benzodiazole] is 1.6-fold lower in IC50: 6310 nM for the first, 3980 nM for the second.
